SMILES | melting point [°C]
COc1ccc(CCNC(=O)/C=C(\C)c2ccc3oc(C(C)=O)c(NC(=O)/C(C#N)=C(/C)O)c3c2)cc1OC [Example 103, N-(2-acetyl-5-{(E)-2-[2-(3,4-dimethoxyphenyl)ethylcarbamoyl]-1-methylvinyl}benzofuran-3-yl)-2-cyano-3-hydroxy-(Z)-2-butenamide] | 176.7 to 179.7
CCOC(=O)c1oc2ccc(Br)cc2c1NC(=O)c1cnoc1C [Example 67, Ethyl 5-bromo-3-[(5-methylisoxazole-4-carbonyl)amino]benzofurane-2-carboxylate] | 170 to 172.8
CC(=O)c1oc2ccc(Br)cc2c1NC(=O)CC#N [Example 193, N-(2-acetyl-5-bromobenzofuran-3-yl)-2-cyanoacetamide] | 214.4 to 215.1
COc1cccc(NC(=O)c2oc3ccc(Br)cc3c2NC(=O)c2cnoc2C)c1 [Example 183, 5-methyl-isoxazole-4-carboxylic acid [5-bromo-2-(3-methoxyphenylcarbamoyl)benzofuran-3-yl]amide] | 223 to 229
CCN(CC)C(=O)/C=C(\C)c1ccc(OCCCCl)c2oc(C(C)=O)cc12 [Example 137, (E)-3-[2-acetyl-7-(3-chloropropoxy)benzofuran-4-yl]-2-butenoic acid diethylamide] | 80.6 to 82.1
CC(=O)c1oc2ccc(Br)cc2c1NC(=O)c1cnoc1C [Example 65, N-(2-acetyl-5-bromobenzofuran-3-yl)-5-methylisoxazole-4-carboxamide] | 206 to 208
CC(=O)c1oc2ccc(/C(C)=C/C(=O)N3CCN(c4ccccc4)CC3)cc2c1NC(=O)/C(C#N)=C(/C)O [Example 95, N-{2-acetyl-5-[1-methyl-3-oxo-3-(4-phenylpiperazin-1-yl)-(E)-1-propenyl]benzofuran-3-yl}-2-cyano-3-hydroxy-(Z)-2-butenamide] | 167.6 to 168.7
C/C(O)=C(\C#N)C(=O)Nc1c(C(=O)c2ccc(C#N)cc2)oc2ccc(Br)cc12 [Example 100, (Z)-N-[5-bromo-2-(4-cyanobenzoyl)benzofuran-3-yl]-2-cyano-3-hydroxy-2-butenamide] | 269.3 to 271.2
Cc1oncc1C(=O)Nc1c(C(=O)c2ccc(Cl)cc2)oc2ccc(Br)cc12 [Example 77, N-[5-bromo-2-(4-chlorobenzoyl)benzofuran-3-yl]-5-methylisoxazole-4-carboxamide] | 240.8 to 243.2
CCN(CC)C(=O)/C=C(\C)c1ccc2oc(C(=O)Nc3cccc(OC)c3)c(NC(=O)/C(C#N)=C(/C)O)c2c1 [Example 189, 3-(2-cyano-3-hydroxy-(Z)-2-butenoylamino)-5-((E)-2-diethylcarbamoyl-1-methylvinyl)-benzofurane-2-carboxylic acid(3-methoxyphenyl)amide] | 172 to 174
COc1ccc2oc(-c3nc(N=CN(C)C)sc3/C=N/CCO)c(-c3ccc(Cl)cc3)c2c1 [Example 223, N′-{4-[3-(4-chlorophenyl)-5-methoxybenzofuran-2-yl]-5-[(2-hydroxyethylimino)methyl]thiazol-2-yl}-N,N-dimethylformamidine] | 167.8 to 169.2
CCOC(=O)/C=C(\C)c1ccc2oc(/C(Cl)=C/C=O)cc2c1 [Example 146, Ethyl 3-[2-(1-chloro-3-oxo-(Z)-propenyl)benzofuran-5-yl]-(E)-2-butenoate] | 99.5 to 101
COc1cccc2c(NC(=O)/C=C/c3ccccc3)c(Cl)oc12 [Example 181, (E)-N-(2-chloro-7-methoxybenzofuran-3-yl)-3-phenylacrylamide] | 220 to 221.3
CCOC(=O)c1oc2ccc(/C(C)=C/C(=O)N(CC)CC)cc2c1N [Example 15, Ethyl (E)-3-amino-5-(2-diethylcarbamoyl-1-methylvinyl)benzofurane-2-carboxylate] | 159.5 to 162
COc1cccc2c(NC(=O)c3cnoc3C)c(C(C)=O)oc12 [Example 80, N-(2-acetyl-7-methoxybenzofuran-3-yl)-5-methylisoxazole-4-carboxamide] | 181 to 181.7
CC(=O)c1oc2ccc(Br)cc2c1NC(=O)/C(C#N)=C(/C)O [Example 96, (Z)-N-(2-acetyl-5-bromobenzofuran-3-yl)-2-cyano-3-hydroxy-2-butenamide] | 221.9 to 222.4
C/C=C/C(=O)NC(C)c1cc2ccccc2o1 (centres unmarked) [Example 192, (E)-2-butenoic acid (1-(benzofuran-2-yl)ethyl)amide] | 98 to 100
CCOC(=O)c1oc2ccc(/C(C)=C/C(=O)N(CC)CC)cc2c1NC(=O)c1cnoc1C [Example 91, Ethyl (E)-5-(2-diethylcarbamoyl-1-methylvinyl)-3-[(5-methylisoxazole-4-carbonyl)amino]benzofurane-2-carboxylate] | 138.9 to 141.2
COC(=O)COc1cccc2cc(C(C)NC(=O)c3cnoc3C)oc12 (centres unmarked) [Example 124, Methyl (2-{1-[(5-methylisoxazole-4-carbonyl)amino]ethyl}benzofuran-7-yloxy)acetate] | 111.8 to 114.6

SMILES | melting point [°C]
COc1cccc2c(NC(=O)CC#N)c(C(=O)c3ccc(Br)cc3)oc12 [Example 198, N-[2-(4-bromobenzoyl)-7-methoxybenzofuran-3-yl]-2-cyanoacetamide] | 312.2 to 348.6
COc1ccc(CCNC(=O)/C=C(\C)c2ccc3oc(C(=O)c4ccc(C#N)cc4)c(NC(=O)c4cnoc4C)c3c2)cc1OC [Example 90, (E)-N-(2-(4-cyanobenzoyl)-5-{2-[2-(3,4-dimethoxyphenyl)ethylcarbamoyl]-1-methylvinyl}benzofuran-3-yl)-5-methylisoxazole-4-carboxamide] | 162.6 to 165.5
Cc1nc(-c2cc3cc(Br)ccc3o2)cs1 [Example 216, 4-(5-bromobenzofuran-2-yl)-2-methylthiazole] | 167.4 to 167.9
CC(=O)Nc1c(C(=O)/C=C/N(C)C)oc2ccc(Br)cc12 [Example 194, (E)-N-[5-bromo-2-(3-dimethylaminoacryloyl)benzofuran-3-yl]acetamide] | 221.1 to 222
COc1ccc(CCNC(=O)/C=C(\C)c2ccc(C(=O)c3oc4c(OC)cccc4c3NC(=O)/C(C#N)=C(/C)O)cc2)cc1OC [Example 106, N-[2-(4-{(E)-2-[2-(3,4-dimethoxyphenyl)ethylcarbamoyl]-1-methylvinyl}benzoyl)-7-methoxybenzofuran-3-yl]-2-cyano-3-hydroxy-(Z)-2-butenamide] | 202.9 to 205.8
CCNS(=O)(=O)c1ccc(OCCCC(=O)OCC)c2oc(C(C)NC(=O)/C(C#N)=C(\C)O)cc12 (centres unmarked) [Example 128, Ethyl (E)-4-{2-[1-(2-cyano-3-hydroxy-2-butenoylamino)ethyl]-4-ethylsulfamoylbenzofuran-7-yloxy}butyrate] | 121 to 122.1
COc1ccc(NC(=O)/C=C(\C)c2cc3cccc(OC(c4ccccc4)c4ccccc4)c3o2)cc1OC [Example 45, (E)-3-(7-benzhydryloxybenzofuran-2-yl)-N-(3,4-dimethoxyphenyl)-2-butenamide] | 93.9 to 94.5
C/C=C/C(=O)Nc1c(C(=O)/C=C/N(C)C)oc2ccc(Br)cc12 [Example 177, (E)-2-butenoic acid [5-bromo-2-(3-dimethylamino-(E)-acryloyl)benzofuran-3-yl]amide] | 247.5 to 249.5
CCOC(=O)C(CSCc1ccccc1)NC(=O)/C=C/C=C(\Cl)c1cc2cccc(OCCCCl)c2o1 (centres unmarked) [Example 63, Ethyl (2E,4Z)-3-benzylsulfanyl-2-{5-chloro-5-[7-(3-chloropropoxy)benzofuran-2-yl]penta-2,4-dienoylamino}propionate] | 116.5 to 118.3
COc1cccc2c(NC(=O)/C(C#N)=C(/C)O)c(C(=O)c3ccc(Br)cc3)oc12 [Example 99, (Z)-N-[2-(4-bromobenzoyl)-7-methoxybenzofuran-3-yl]-2-cyano-3-hydroxy-2-butenamide] | 131.7 to 133.4
COc1ccc2oc(-c3csc(N)n3)c(-c3ccc(Cl)cc3)c2c1 [Example 218, 4-[3-(4-chlorophenyl)-5-methoxybenzofuran-2-yl]thiazol-2-ylamine] | 196 to 197.7
COc1ccc(NC(=O)/C=C(\C)c2oc3c(Cl)cccc3c2-c2ccc(Cl)cc2)cc1 [Example 143, (E)-3-[7-chloro-3-(4-chlorophenyl)benzofuran-2-yl]-2-butenoic acid (4-methoxyphenyl)-amide] | 168.9 to 170
O=C(CCCl)Nc1c(C(=O)/C=C/c2ccccc2)oc2ccc(Br)cc12 [Example 201, (E)-N-[5-bromo-2-(3-phenylacryloyl)-benzofuran-3-yl]-3-chloropropionamide] | 204.7 to 206.8
C/C(=C\C(=O)N1CCOCC1)c1ccc2oc(C(=O)c3ccc(C#N)cc3)c(NC(=O)c3cnoc3C)c2c1 [Example 81, (E)-N-[2-(4-cyanobenzoyl)-5-(1-methyl-3-morpholino-3-oxo-1-propenyl)benzofuran-3-yl]-5-methylisoxazole-4-carboxamide] | 229.4 to 232.5
CCN(CC)C(=O)/C=C(\C)c1ccc2oc(C(=O)c3ccc(C#N)cc3)c(N)c2c1 [Example 22, (E)-3-[3-amino-2-(4-cyanobenzoyl)benzofuran-5-yl]-N,N-diethyl-2-butenamide] | 216.4 to 218.4
COc1ccc(/C=C/C(=O)c2oc3ccc(Br)cc3c2NC(=O)CNCc2ccccc2)cc1 [Example 196, (E)-2-benzylamino-N-{5-bromo-2-[3-(4-methoxyphenyl)acryloyl]benzofuran-3-yl}acetamide] | 174.2 to 176.5
Brc1ccc2oc(-c3csc(-c4ccccc4)n3)cc2c1 [Example 212, 4-(5-bromobenzofuran-2-yl)-2-phenylthiazole] | 185.5 to 187.8
COc1cccc2c(NC(=O)/C=C/c3ccccc3)c(C(C)=O)oc12 [Example 182, (E)-N-(2-acetyl-7-methoxybenzofuran-3-yl)-3-phenylacrylamide] | 160.6 to 161.1
CCCCc1oc2ccccc2c1/C(Cl)=C/C=C/C(=O)Nc1ccc(OC)cc1 [Example 135, (2E,4Z)-5-(2-butylbenzofuran-3-yl)-5-chloropenta-2,4-dienoic acid (4-methoxyphenyl)amide] | 91.3 to 93.2
